These molecules were tested against T1, AM2 receptor (CALCRL+RAMP3) (Homo sapiens, UniProt O60896+Q16602) (assay: AM2 receptor inhibition, LANCE TR-FRET cAMP agonist-antagonist competition assay). Conditions: inhibition of AM induced cAMP activation; 1321N1 cells transfected with CALCRL+RAMP3; read-out: AM2 pIC50 (converted).
T1 construct: host or cells: 1321N1
T1 sequence (Q16602 23-461): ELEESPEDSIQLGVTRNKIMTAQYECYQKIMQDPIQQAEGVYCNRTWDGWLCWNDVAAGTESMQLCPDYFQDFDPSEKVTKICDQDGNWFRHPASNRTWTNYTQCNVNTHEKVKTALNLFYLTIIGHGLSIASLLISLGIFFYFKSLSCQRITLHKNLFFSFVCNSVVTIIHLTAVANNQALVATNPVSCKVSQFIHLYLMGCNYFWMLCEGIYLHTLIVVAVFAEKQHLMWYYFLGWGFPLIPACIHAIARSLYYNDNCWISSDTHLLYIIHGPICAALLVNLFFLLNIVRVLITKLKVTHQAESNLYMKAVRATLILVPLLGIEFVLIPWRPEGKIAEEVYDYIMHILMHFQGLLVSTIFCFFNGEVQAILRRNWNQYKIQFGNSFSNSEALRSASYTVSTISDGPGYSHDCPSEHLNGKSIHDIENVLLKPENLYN
T1 sequence (O60896 24-148): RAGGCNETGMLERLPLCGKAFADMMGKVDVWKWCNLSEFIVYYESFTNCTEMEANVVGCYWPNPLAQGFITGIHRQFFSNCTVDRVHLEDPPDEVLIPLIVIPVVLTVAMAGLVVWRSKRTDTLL
Format: cell-based
For `CNCc1ccccc1CN(CC(=O)Nc1ccc2c(c1)CC1(C2)C(=O)Nc2ncccc21)C(=O)C1CCN(C(C)=O)CC1` (stereo not shown) [Example 79, 1-Acetyl-N-(2-((methylamino)methyl)benzyl)-N-(2-oxo-2-((2′-oxo-1,1′,2′,3-tetrahydrospiro[indene-2,3′-pyrrolo[2,3-b]pyridin]-5-yl)amino)ethyl)piperidine-4-carboxamide], the IC50 was 22.4 nM.
With `CNCc1ccccc1CN(CC(=O)Nc1ccc2c(c1)CC1(C2)C(=O)Nc2ncccc21)C(=O)C1CCOC1` (stereo not shown) [Example 80, N-(2-((Methylamino)methyl)benzyl)-N-(2-oxo-2-((2′-oxo-1,1′,2′,3-tetrahydrospiro[indene-2,3′-pyrrolo[2,3-b]pyridin]-5-yl)amino)ethyl)tetrahydrofuran-3-carboxamide] the IC50 was 14.8 nM.
Work on `CNCc1ccccc1CN(CC(=O)Nc1ccc2c(c1)CC1(C2)C(=O)Nc2ncccc21)C(=O)N1CCCC1` (stereo not shown) [Example 81, N-(2-((Methylamino)methyl)benzyl)-N-(2-oxo-2-((2′-oxo-1,1′,2′,3-tetrahydrospiro[indene-2,3′-pyrrolo[2,3-b]pyridin]-5-yl)amino)ethyl)pyrrolidine-1-carboxamide] yielded an IC50 of 7.41 nM.
`CNCc1ccccc1CN(CC(=O)Nc1ccc2c(c1)CC1(C2)C(=O)Nc2ncccc21)C(=O)N(C)OC` (stereo not shown) [Example 82, 2-(3-Methoxy-3-methyl-1-(2-((methylamino)methyl)benzyl)ureido)-N-(2′-oxo-1,1′,2′,3-tetrahydrospiro[indene-2,3′-pyrrolo[2,3-b]pyridin]-5-yl)acetamide] showed an IC50 of 263 nM.
Work on `CNCc1ccccc1CN(CC(=O)Nc1ccc2c(c1)CC1(C2)C(=O)Nc2ncccc21)C(=O)NC1CCCC1` (stereo not shown) [Example 83, 2-(3-Cyclopentyl-1-(2-((methylamino)methyl)benzyl)ureido)-N-(2′-oxo-1,1′,2′,3-tetrahydrospiro[indene-2,3′-pyrrolo[2,3-b]pyridin]-5-yl)acetamide] yielded an IC50 of 42.7 nM.
`CNCc1ccccc1CN(CC(=O)Nc1ccc2c(c1)CC1(C2)C(=O)Nc2ncccc21)C(=O)NC(C)C` (stereo not shown) [Example 84, 2-(3-Isopropyl-1-(2-((methylamino)methyl)benzyl)ureido)-N-(2′-oxo-1,1′,2′,3-tetrahydrospiro[indene-2,3′-pyrrolo[2,3-b]pyridin]-5-yl)acetamide] gave an IC50 of 52.5 nM.
With `CNCc1ccccc1CN(CC(=O)Nc1ccc2c(c1)CC1(C2)C(=O)Nc2ncccc21)C(=O)N(C)C` (stereo not shown) [Example 85, 2-(3,3-Dimethyl-1-(2-((methylamino)methyl)benzyl)ureido)-N-(2′-oxo-1,1′,2′,3-tetrahydrospiro[indene-2,3′-pyrrolo[2,3-b]pyridin]-5-yl)acetamide] the IC50 was 234 nM.
Work on `CNCc1ccccc1CN(CC(=O)Nc1ccc2c(c1)CC1(C2)C(=O)Nc2ncccc21)C(=O)N1CCCCC1` (stereo not shown) [Example 87, N-(2-((Methylamino)methyl)benzyl)-N-(2-oxo-2-((2′-oxo-1,1′,2′,3-tetrahydrospiro[indene-2,3′-pyrrolo[2,3-b]pyridin]-5-yl)amino)ethyl)piperidine-1-carboxamide] yielded an IC50 of 43.7 nM.
`CNCc1ccccc1CN(CC(=O)Nc1ccc2c(c1)CC1(C2)C(=O)Nc2ncccc21)C(=O)C1CCNCC1` (stereo not shown) [Example 88, N-(2-((Methylamino)methyl)benzyl)-N-(2-oxo-2-((2′-oxo-1,1′,2′,3-tetrahydrospiro[indene-2,3′-pyrrolo[2,3-b]pyridin]-5-yl)amino)ethyl)piperidine-4-carboxamide] was tested, and the IC50 was 148 nM.
`CNCc1ccccc1CN(CC(=O)Nc1ccc2c(c1)CC1(C2)C(=O)Nc2ncccc21)C(=O)N1CCC2(CCNCC2)CC1` (stereo not shown) [Example 89, N-(2-((Methylamino)methyl)benzyl)-N-(2-oxo-2-((2′-oxo-1,1′,2′,3-tetrahydrospiro[indene-2,3′-pyrrolo[2,3-b]pyridin]-5-yl)amino)ethyl)-3,9-diazaspiro[5.5]undecane-3-carboxamide] gave an IC50 of 87.1 nM.

From US11400081B2, “Compounds” (The University of Sheffield, priority 2017, dated 2022)
